Measurements from patent US20230233606A1, “Cell” (AUTOLUS LIMITED, priority 2019, published 2023).

What was measured:
Format in all cases: cell-based
SupT1 CD22 High [1] = assay: IFN-γ release with increasing concentrations of 3-IB-PP1, Example 5; details: 3-IB-PP1 0.156 uM-10 uM, T cells expressing CSK^AS, E:T 1:4, 72 h
Method: (§1) Analysis by flow cytometry was carried out at 72 h post co-culture set up. Each condition was tested with a minimum of 3 donors (n=3), with median indicated. All data was normalised to NT T cells. T cells were co-cultured with SupT1 NT (left) or SupT1 CD22 High (right) target cells at an E:T ratio of 1:4.
(§2) The co-culture described in Example 4 was repeated, but this time with increasing concentrations of 3-IB-PP1 (0.156 uM-10 uM).

SupT1 CD22 High [2] = assay: FBK assay with increasing concentrations of 3-IB-PP1, Example 5; details: 3-IB-PP1 0.156 uM-10 uM; T cells expressing CSK^AS; CD22 High (6,309 molecules per cell); E:T 1:4; 72 h
Method: as §1, §2

SupT1 CD22 High [3] = assay: FBK assay with or without 3-IB-PP1, Example 4, SupT1 CD22 High; details: 3-IB-PP1 10 uM; T cells expressing CSK^AS; CD22 High (20,262 molecules per cell); E:T 1:4; 72 h
Method: as §1, with “6” for “3”, “(n=6),” for “(n=3),”, “(left), SupT1 CD22 High (middle)” for “(left)”, “Low” for “High”, “1:4. Statistics were run using a paired t-test. *P<0.05, **P<0.01, ***P<0.001, ****P<0.0001.” for “1:4.”
(§3) PBMCs were either left untransduced or transduced with one of the constructs. The capacity of the CAR-T cells to kill target cells expressing CD22 was investigated using a FACS-based killing (FBK) assay. […] Two different types of CD22-expressing SupT1 target cells were generated, one expressing CD22 at a low density (average number of CD22 molecules per cell: 3,309) and one expressing CD22 at a high density (average number of CD22 molecules per cell: 20,262).

SupT1 CD22 High [4] = assay: IFN-γ release ELISA, Example 4, SupT1 CD22 High; details: 3-IB-PP1 10 uM, T cells expressing CSK^AS, E:T 1:4, 72 h
Method: (§4) Supernatant taken at 72 h post co-culture set up was analysed by ELISA for the presence of IFN-γ. Each condition was tested with a minimum of 6 donors (n=6), with median indicated. T cells were co-cultured with SupT1 NT (left), SupT1 CD22 High (middle) or SupT1 CD22 Low (right) target cells at an E:T ratio of 1:4.
(§5) In order to investigate cytokine release, supernatant was taken at 72 h post co-culture set up and analysed by ELISA for the presence of IL-2 and IFN-γ.

SupT1 CD22 Low [5] = assay: IL-2 release ELISA, Example 4, SupT1 CD22 Low; details: 3-IB-PP1 10 uM, CSK^AS expressing T cells, E:T 1:4, 72 h
Method: as §4, with “IL-2.” for “IFN-γ.”
as §5

SupT1 CD22 Low [6] = assay: IFN-γ release ELISA, Example 4, SupT1 CD22 Low; details: 3-IB-PP1 10 uM, T cells expressing CSK^AS, E:T 1:4, 72 h
Method: as §4, §5

SupT1 CD22 Low [7] = assay: FBK assay with or without 3-IB-PP1, Example 4, SupT1 CD22 Low; details: 3-IB-PP1 10 uM; T cells expressing CSK^AS; CD22 Low (3,309 molecules per cell); E:T 1:4; 72 h
Method: as §1, with “6” for “3”, “(n=6),” for “(n=3),”, “(left), SupT1 CD22 High (middle)” for “(left)”, “Low” for “High”, “1:4. Statistics were run using a paired t-test. *P<0.05, **P<0.01, ***P<0.001, ****P<0.0001.” for “1:4.”
as §3

SupT1 CD22 High [8] = assay: IL-2 release ELISA, Example 4, SupT1 CD22 High; details: 3-IB-PP1 10 uM, CSK^AS expressing T cells, E:T 1:4, 72 h
Method: as §4, with “IL-2.” for “IFN-γ.”
as §5

CC(C)(C)n1nc(Cc2cccc(I)c2)c2c(N)ncnc21 [3-IB-PP1, 3-iodo-benzyl-PP1]
IFN-γ production (SupT1 CD22 High [1]): increased in a dose-dependent manner | cytotoxicity (SupT1 CD22 High [2]): increased in a dose-dependent manner | cytotoxicity (SupT1 CD22 High [3]): significantly increased compared to the media condition | IFN-γ release (SupT1 CD22 High [4]): significantly higher IFN-γ concentrations compared to the media condition | IL-2 release (SupT1 CD22 Low [5]): increased levels of IL-2 | IFN-γ release (SupT1 CD22 Low [6]): significantly higher IFN-γ concentrations compared to the media condition | cytotoxicity (SupT1 CD22 Low [7]): significantly increased compared to the media condition | IL-2 release (SupT1 CD22 High [8]): increased levels of IL-2
